Source: patent publication US9834773B2, “Methods and means for metabolic engineering and improved product formation by micro-organisms” (Universiteit Leiden, priority 2006, dated 2017)
“Also recorded” adds a separate entry of the source.

Legend:
[1] = test system: S. coelicolor M145 and nagE1, nagE2 mutants; experiment: Development on R2YE agar plates with or without N-acetylglucosamine; type: cell-based, Streptomyces coelicolor; conditions: N-acetylglucosamine 1% w/v
Description: FIG. 18. N-acetylglucosamine is transported by NagE2 (SCO2907). Mutants deleted for the transport genes nagE1/(SCO2906), nagE2 (SCO2907), or both, were plated on R2YE agar plates with or without N-acetylglucosamine (1% w/v). Other strains on the agar plates are: S.coelicolor M145 (parent of all mutants), the dasR mutant BAP29 and the pts mutants ptsH (BAP1), crr (BAP2), and ptsI (BAP3). For phenotypes of the pts mutants see also FIG. 3A). […] This proves that indeed nagE2 is the transporter of N-caetylglucosamine and is essential for import of the inducer molecule for the DasR control system.
Two possible transporters for N-acetylglucosamine were identified on the S. coelicolor genome, namely the adjacent genes nagE1 (SCO2906) and nagE2 (SCO2907). Mutants were created for both genes by replacing the entire gene by the apramycin resistance cassette aacC4. A double mutant was also produced (BAP6). The method used to do this was by using pWHM3, as described previously (Nothaft et al., 2003). Mutants deleted for the transport genes nagE1 (BAP4), nagE2 (BAP5), or both (BAP6), were plated on R2YE agar plates with or without N-acetylglucosamine (1% w/v). Other strains on the agar plates are: S.coelicolor M145 (parent of all mutants), the dasR mutant BAP29 and the pts mutants ptsH (BAP1), crr (BAP2), and ptsI (BAP3). For phenotypes of the pts mutants see also FIG. 3A). […] This proves that indeed nagE2 is the transporter of N-acetylglucosamine and is essential for import of the inducer molecule for the DasR control system.

DasR = DasR (Streptomyces coelicolor, UniProt Q9K492); experiment: EMSA binding interference experiment: ability of compounds to interfere with binding of DasR to the nagB and crr promoters; conditions: for effect on formation of the complex of DasR with the nagB promoter (EMSA): 10 nM fluorescent probe, 3 μM purified DasR, 500-fold excess of non-specific DNA, 50, 100, 150, and 200 mM compound
Description: FIG. 12. […] EMSAs were performed with 10 nM fluorescent probe, 3 μM purified DasR, and 500-fold excess of non-specific DNA.
EMSAs were performed with fluorescent probes (10 nM) with an ALF express sequencer (Filee et al., 2001). Purified DasR (3 μM) and 1000-fold excess of non-specific DNA were used in the reaction mixture. Predicted cis-acting elements were taken from the promoter regions of actII-ORF4 (SCO5085; 5′-[…]-3′ (SEQ ID NO:530)), and redZ (SCO5881; 5′-[…]-3′ (SEQ ID NO:531)). Known cis-acting elements upstream of crr (SCO1390; […]-3′ (SEQ ID NO:532)), and crp (SCO3571; 5′-[…]-3′ (SEQ ID NO:533)) were used as positive and negative controls, respectively. The 16 nt dre sites are underlined.
A pivotal question is what is the effector molecule that modulates DasR? As shown in here, many of the targets for DasR relate to the generation (chitinolytic system), transport (PTS^GlcNAc), and metabolism (glycolysis via fructose 6-P) of N-acetylglucosamine. We therefore looked for the inducer among the intermediate molecules that gravitate around aminosugar metabolism. A binding interference experiment was set up where the ability of compounds to interfere with binding of dasR to the nagB and crr promoters was tested. […] The finding that glucosamine-6-P serves as an effector of DasR is explained by its central position at the metabolic crossroads between (GlcNAc)n extracellular degradation, N-acetylglucosamine transport and intracellular metabolism, lipid and nitrogen metabolism, glycolysis, and peptidoglycan synthesis (FIG. 13).

[2] = test system: several streptomycetes (Bacillus subtilis as the indicator strain); experiment: Global antibiotic activity assay: streptomycetes on MM mannitol with or without GlcNAc, Bacillus subtilis overlay; type: cell-based, Streptomyces species; conditions: MM mannitol 0.5% with vs without GlcNAc 1%; for growth inhibition zones indicative of antibiotic production: B. subtilis indicator
Description: FIG. 23. Conservation of the GlcNAc-dependent antibiotic-inducing pathway amongst streptomycetes. Streptomycetes were grown on MM agar plates with 0.5% mannitol alone (left panel), or with added 1% GlcNAc (right panel), and an overlay was applied containing B. subtilis, allowing visualization of growth inhibition caused by antibiotic production. The tested streptomycetes were Streptomyces lividans 1326 (1326), Streptomyces hygroscopicus (hygro), Streptomyces collinus (colli), Streptomyces roseosporus (roseo), Streptomyces cinnamonensis (cinna), Streptomyces venezuelae (venez), Streptomyces clavuligerus (clavu), Streptomyces rimosus (rimos), Streptomyces griseus (grise), Streptomyces acrimycini (acrim), Streptomyces limosus (limos), and Streptomyces avermitilis (averm). See Materials and Methods section for exact nomenclature. The GlcNAc-triggering effect on antibiotic activity was most obvious for S. hygroscopicus, S. collinus, S. venezuelae, S. clavuligerus, S. rimosus, and S. griseus.
Samples (1 μl) of diluted spore suspensions were spotted on minimal medium plates containing 0.5% mannitol with or without 1% GlcNAc and incubated three days at 28° C. For the bioassay, we inoculated 10 ml of molten soft nutrient agar (SNA) with 500 μl of a Bacillus subtilis overnight culture (0D600˜1), and poured the mixture into square 12-cm-side Petri dishes. Plates were kept 2 h at 4° C. to solidify SNA and to allow diffusion of antibiotics produced, then incubated overnight at 30° C.
Is the GlcNAc-mediated control of antibiotic production a more widespread phenomenon in streptomycetes? To assess this, we evaluated the effect of GlcNAc on total antimicrobial activity (bactericidal and bacteristatic) of several streptomycetes, using Bacillus subtilis as the indicator strain. The tested strains were spotted on minimal medium containing mannitol (0.5%) with or without GlcNAc (1%). Excitingly, growth inhibition zones indicative of antibiotic production were much larger for Streptomyces clavuligerus (a producer of cephamycin), Streptomyces collinus (produces kirromycin), Streptomyces griseus (streptomycin producer), Streptomyces hygroscopicus (produces hygromycin), Streptomyces rimosus (produces oxytetracycline), and Streptomyces venezuelae (chloramphenicol, methymycin) (FIG. 23).

DasR, sequence (Q9K492 whole entry): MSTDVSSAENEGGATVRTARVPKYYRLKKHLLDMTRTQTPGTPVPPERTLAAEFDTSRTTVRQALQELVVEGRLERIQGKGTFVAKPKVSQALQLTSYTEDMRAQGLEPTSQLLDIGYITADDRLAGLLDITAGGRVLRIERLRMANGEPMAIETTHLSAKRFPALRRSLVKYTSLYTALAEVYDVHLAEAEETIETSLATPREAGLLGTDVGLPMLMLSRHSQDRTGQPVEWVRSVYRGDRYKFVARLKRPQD

CC(=O)N[C@H]1C(O)O[C@H](CO)[C@@H](O)[C@@H]1O (stereo partly shown) [N-acetylglucosamine]
effect on development ([1]; nagE1/nagE2 double mutant (BAP6), R2YE agar): no effect on development
effect on development ([1]; nagE1 mutant (BAP4), R2YE agar): arrested in the vegetative state
effect on development ([1]; nagE2 mutant (BAP5), R2YE agar): no effect on development
effect on development ([1]; parental strain S. coelicolor M145, R2YE agar): arrested in the vegetative state
effect on formation of the complex of DasR with the nagB promoter (EMSA) (DasR): it was the only of the compounds tested that prevented the formation of a complex
effect on formation of the complex of DasR with the nagB promoter (EMSA) (DasR; listed as GlcNAc): no effect
effect on formation of the complex of DasR with the crr promoter region (EMSA) (DasR; crr promoter, data not shown): it was the only of the compounds tested that prevented the formation of a complex
antibiotic activity against B. subtilis ([2]; Streptomyces acrimycini): did not seem to affect
antibiotic activity against B. subtilis ([2]; Streptomyces avermitilis): did not seem to affect
antibiotic activity against B. subtilis ([2]; Streptomyces cinnamonensis): did not seem to affect
growth inhibition zones indicative of antibiotic production ([2]; Streptomyces clavuligerus): most obvious; also recorded: much larger
growth inhibition zones indicative of antibiotic production ([2]; Streptomyces collinus): most obvious; also recorded: much larger
growth inhibition zones indicative of antibiotic production ([2]; Streptomyces griseus): most obvious; also recorded: much larger
growth inhibition zones indicative of antibiotic production ([2]; Streptomyces hygroscopicus): most obvious; also recorded: much larger
antibiotic activity against B. subtilis ([2]; Streptomyces limosus): did not seem to affect
antibiotic activity against B. subtilis ([2]; Streptomyces lividans): did not seem to affect
growth inhibition zones indicative of antibiotic production ([2]; Streptomyces rimosus): most obvious; also recorded: much larger
antibiotic activity against B. subtilis ([2]; Streptomyces roseosporus): repressing effect
growth inhibition zones indicative of antibiotic production ([2]; Streptomyces venezuelae): most obvious; also recorded: much larger
